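Test compounds were applied to cells in 96-well plates for 48 hours at 5 doses. At the GI50, growth is halved. TGI: concentration producing complete growth inhibition.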
Key:
Assay in all cases: NCI tumour cell line growth inhibition, 48 h; in the data active = GI50 below about 0.43 µM; inactive = the rest
[1] = system: T-47D breast
[2] = system: SR leukemia
[3] = system: HCC-2998 colon
[4] = system: MCF7 breast
[5] = system: HS 578T breast
[6] = system: DU-145 prostate
[7] = system: UACC-257 melanoma
[8] = system: OVCAR-4 ovarian
[9] = system: CAKI-1 renal
[10] = system: EKVX NSCLC
[11] = system: ACHN renal
[12] = system: U251 CNS
[13] = system: SF-268 CNS
[14] = system: HOP-92 NSCLC
[15] = system: RPMI-8226 leukemia
[16] = system: SNB-19 CNS
[17] = system: HT29 colon
[18] = system: K-562 leukemia
[19] = system: M14 melanoma
[20] = system: COLO 205 colon
[21] = system: A498 renal
[22] = system: HOP-62 NSCLC
[23] = system: BT-549 breast
[24] = system: CCRF-CEM leukemia
[25] = system: HCT-15 colon
[26] = system: 786-0 renal
[27] = system: NCI-H460 lung
[28] = system: OVCAR-5 ovarian
[29] = system: NCI-H522 lung
[30] = system: MALME-3M melanoma
[31] = system: SW-620 colon
[32] = system: UO-31 renal
[33] = system: OVCAR-8 ovarian
[34] = system: PC-3 prostate
[35] = system: UACC-62 melanoma
[36] = system: NCI-H226 lung
[37] = system: MDA-MB-231 breast
[38] = system: SK-OV-3 ovarian
[39] = system: OVCAR-3 ovarian
[40] = system: LOX IMVI melanoma
[41] = system: TK-10 renal
[42] = system: SK-MEL-2 melanoma
[43] = system: SF-295 CNS
[44] = system: HCT-116 colon
[45] = system: SN12C renal
[46] = system: SF-539 CNS
[47] = system: NCI/ADR-RES ovarian
[48] = system: SK-MEL-5 melanoma
[49] = system: MOLT-4 leukemia
[50] = system: KM12 colon
[51] = system: MDA-MB-435
[52] = system: IGROV1 ovarian
[53] = system: RXF 393 renal
[54] = system: A549 NSCLC
[55] = system: SK-MEL-28 melanoma

Cc1c(-c2ccc(O)cc2)oc(=O)c2ccc(O)cc12
inactive: GI50 [1] > 100 µM | GI50 [2] 41.6 µM | GI50 [3] 36.9 µM | GI50 [4] 66.3 µM | GI50 [5] 43.5 µM | GI50 [6] 75.8 µM | GI50 [7] 63.2 µM | GI50 [8] > 100 µM | GI50 [9] 22.4 µM | GI50 [10] 54.6 µM | GI50 [11] > 100 µM | GI50 [12] 63.8 µM | GI50 [13] 55.4 µM | GI50 [14] > 100 µM | GI50 [15] 31 µM | GI50 [16] > 100 µM | GI50 [17] 73.3 µM | GI50 [18] 38.5 µM | GI50 [19] 40.3 µM | GI50 [20] > 100 µM | GI50 [21] 42.8 µM | GI50 [22] 41 µM | GI50 [23] 35.6 µM | GI50 [24] 32.6 µM | GI50 [25] 89.8 µM | GI50 [26] 50.7 µM | GI50 [27] 45.3 µM | GI50 [28] > 100 µM | GI50 [29] 87.6 µM | GI50 [30] 32.7 µM | GI50 [31] 55.4 µM | GI50 [32] 69.9 µM | GI50 [33] 83.8 µM | GI50 [34] 56.4 µM | GI50 [35] 35.2 µM | GI50 [36] > 100 µM | GI50 [37] > 100 µM | GI50 [38] > 100 µM | GI50 [39] 51.5 µM | GI50 [40] > 100 µM | GI50 [41] 27.4 µM | GI50 [42] > 100 µM | GI50 [43] 32.8 µM | GI50 [44] 38 µM | GI50 [45] 66.6 µM | GI50 [46] 36.7 µM | GI50 [47] 49.7 µM | GI50 [48] 33.3 µM | GI50 [49] 73.7 µM | GI50 [50] 60.9 µM | GI50 [51] 15.4 µM | GI50 [52] 35.7 µM | GI50 [53] > 100 µM | GI50 [54] 47.6 µM | GI50 [55] 60 µM
98.1 µM: TGI [21]
85.2 µM: TGI [51]
> 100 µM: TGI [1] | TGI [2] | TGI [3] | TGI [4] | TGI [5] | TGI [6] | TGI [7] | TGI [8] | TGI [9] | TGI [10] | TGI [11] | TGI [12] | TGI [13] | TGI [14] | TGI [15] | TGI [16] | TGI [17] | TGI [18] | TGI [19] | TGI [20] | TGI [22] | TGI [23] | TGI [24] | TGI [25] | TGI [26] | TGI [27] | TGI [28] | TGI [29] | TGI [30] | TGI [31] | TGI [32] | TGI [33] | TGI [34] | TGI [35] | TGI [36] | TGI [37] | TGI [38] | TGI [39] | TGI [40] | TGI [41] | TGI [42] | TGI [43] | TGI [44] | TGI [45] | TGI [46] | TGI [47] | TGI [48] | TGI [49] | TGI [50] | TGI [52] | TGI [53] | TGI [54] | TGI [55]
